We go through 4 substances from patent US7563862B2, “Neural regeneration peptides and methods for their use in treatment of brain damage” (Neuren Pharmaceuticals Limited, priority 2001, dated 2009).

The test system of assay [1] is cerebellar microexplants. Put plainly: cerebellar microexplants, oxidative stress by 0.1 mM hydrogen peroxide. The class given is cell-based. Particulars: 48 hrs. On the procedure: In this series of experiments, we studied whether NRP-4 Segment PQ (“NRP-4 PQ”) was able to protect cerebellar microexplanted cells from oxidative injury. We exposed cells to vehicle, 0.1 mM hydrogen peroxide or different concentrations of NRP-4 PQ in vehicle. […] Although the mechanism for this potentiation of neurite outgrowth is uncertain, it may relieve the stresses associated with creating or maintaining the microexplants themselves.

For another assay, the system named is hypoxic-ischemic injury. Briefly: hypoxic-ischemic injury (HI) in adult rats, histological tissue damage score. The class given is in vivo, rat. Particulars: five days after insult; for neuroprotection: ICV 2 hrs after hypoxia. On the procedure: To test the efficacy of NRPs in vivo studies were carried out in rats that had been exposed to hypoxic-ischemic injury (HI). Adult rats (50 days old, Wistar, 250-300 g, male) were used. The modified Levine model preparation and experimental procedures were used (Rice et al, 1981, Ann. Neurol. 9: 131-141; Guan et al J., 1993, Cereb. Blood Flow Metab.: 13(4): 609-16). These procedures in brief, consist of an HI injury induced by unilateral carotid artery ligation followed by inhalational asphyxia in the animals with an implanted lateral ventricular cannula. A guide cannula was stereotaxically placed on the top of the dura 1.5 mm to the right of the mid-line and 7.5 mm anterior to the interaural zero plane under halothane anaesthesia. The right carotid artery was double ligated two days after the cannulation. After a 1-hour recovery period from anaesthesia, each of the rats was placed in an incubator where the humidity (90±5%) and temperature ([…]) were controlled for another hour, and then each of the rats was exposed to hypoxia (6% oxygen) for 10 min. The animals were kept in the incubator for an additional 2 hours before treatment.
Rats were treated intracerebral ventricularly (icv) with 5 nM (n=12), 50 nM (n=12) or 500 nM of NRP-4 segment PQ (PGRAEAGGQ; SEQ ID NO:43) dissolved in saline, or vehicle (n=10) (normal saline) 2 hours after hypoxic-ischemic insult.
Histological examination was performed on rats 5 days after the hypoxic-ischemic injury. The rats were killed with an overdose of sodium pentobarbital and were perfused transcardially with normal saline followed by 10% formalin. The brains were kept in the same fixative for a minimum of 2 days before being processed using a standard paraffin imbedding procedure.
Coronal sections 8 μm in thickness were cut from the striatum, cerebral cortex and hippocampus and were stained with thionin and acid fuchsin. The severity of tissue damage was scored in the striatum, cortex and the CA1-2, CA3, CA4 and dentate gyrus of the hippocampus. […]

Assay [2] deals with embryonic cerebellar microexplants. Put plainly: neural cell proliferation in embryonic cerebellar microexplants. The class given is cell-based. The text has this: In another set of studies, we determined effects of NRP-5 RG on induction of neural cell proliferation in embryonic cerebellar microexplants as described herein.
For another assay, the system named is mouse neural stem cells. Put plainly: haptotactic migration assay, mouse neural stem cells. The class given is cell-based. As for the experimental part: (§1) NRPs were tested for migration-inducing/chemoattractive activity on mouse neural stem cells, EGF-dependent immortalized mouse neural stem cell line MEB5 and wild-type PC-12 cells in a haptotactic migration assay as described below.
(§2) Initial NRP Coating. Control wells of Transwell plates (Coming) with 12 μm pore size were coated in 1.5 ml of the BSA/PBS vehicle. Remaining plates were coated using various concentrations of NRPs ranging between 1-100 ng/ml (prepared in PBS containing 10 ug/ml BSA). The plates were then incubated at 37° C. for 1 hr to coat. Wells were then rinsed 2× with 1 ml sterile PBS.
(§3) Laminin ([…]) for MEB-5 cells, PDL (50 μg/ml)+Matrigel for mouse primary stem cells and fibronectin (25 ug/ml)+matrigel for PC-12 cells were used as extracellular matrix (ECM) coating for the cells. All ECM compounds were diluted in PBS. 1.5 ml of the ECM per well was incubated for 2 hrs at room temperature. The wells were then rinsed once with Iml serum-free media (e.g. NB/B27) followed by 1 ml PBS wash.
A 5 ug/mL PDL/PLL mixture (in PBS) was used to coat inserts. Subsequently the inserts were rinsed with MilliQ water.
Transferring to Media and Cell Seeding: Appropriate medium (MEB-5 cells: DMEM-high glucose+N2 (growth medium supplement from Invitrogen)+10 ng/biotin+2 mM L-glutamine, primary stem cells: NSA-medium from Euroclone and for PC-12 cells: NB/B27 medium) was transferred into the 12-well plates. […] Plates were fixed at 1-2 days in vitro (DIV).
Fixation: Inserts were discarded and wells fixed in successive dilutions of PFA (0.4, 1.2, 3 and 4%) for 3-5min in each dilution. […] The wells were rinsed and stored in PBS until counting.
A haptotactic migration assay was performed according to the description of Example 10 using rat NRP-9SD (SEQ ID NO:34) (4 nM) and mouse NRP-7SW (SEQ ID NO:24) (0.4 nM) as attractants in a Boyden chamber

Assay [3] concerns cerebellar microexplants. Briefly: cerebellar microexplant survival assay, 3-NP/glutamate injury. The class given is cell-based, rat. As for the experimental part: Toxicological and drug administration experiments were designed such that 1/100 parts of toxin and neuroprotective drug were administered simultaneously to the freshly prepared cerebellar microexplants derived from P-4 or P8 rats. Glutamate was prepared as a 50 mM stock solution in MilliQ water while 50 mM 3-nitropropionic acid was pH-adjusted (pH 6.8-7.2) in MilliQ water. The concentrations of the oxidative stress inducing toxin, 3-nitropropionic acid (3-NP), and the excitotoxin, glutamate, in the assay were 0.5 mM each. Lyophilized peptides were reconstituted in PBS or 100 μg/ml human transferrin as a 10 μM stock solution. Subsequently, serial dilutions were made. Cerebellar microexplants were cultivated for 48-72 hours at 34° C., 5% CO2 in air and 100% humidity before they were fixed by increasing amounts of paraformaldehyde (0.4%, 1.2%, 3% and 4%—each treatment 2-3 min).
For statistical analysis of survival, four fields (each field having an area of 0.65 mm^2) of each fixed cerebellar culture with the highest cell densities were chosen, and cells displaying neurite outgrowth were counted. Statistical significance was measured by Student's t-test.
Laminated cerebellar cortex was extracted from P3/4, P7/8 rat pups and triturated through gauze having a 125 μm pore size to obtain uniformly sized microexplants. After centrifugation for 3 minutes at 61 g and the pellet was resuspended in StartV medium (Biochrom) and the suspension seeded on poly-D-lysine coated coverslips in 6-well plates and incubated for 3 hrs to allow adherence, before 1 ml StartV per well was added. As described previously, glutamate/3-NP and NRP were also added. The explants are cultivated at 34° C. at 5% CO2 and 100% humidity for 48-72 hrs. BrdU was administered at start of cultivation for proliferation rate measurements and cells are counted per microscopic field after 48-72 hrs.
Cerebellar Microexplants were prepared as described in Example 9 with the addition of SDF-1 as described, in addition to glutamate/3-NP, and NRP.
Cerebellar microexplants were prepared as described in Example 9 with the addition of SDF-1, Wortmannin and PD98059 (both Calbiochem), as described, in addition to glutamate/3-NP, and NRP.

Assay [4] concerns cerebellar microexplants. The conditions noted are these: AT2 receptor agonist, 96 hours after start of cultivation (Cote et al., 1999); cited from earlier work.
In the next assay the test system is wild-type PC-12 cells. Briefly: haptotactic migration assay, PC-12 cells. The class given is cell-based. Particulars: 50 ng/ml coating, 200,000 cells. On the procedure: as §1, §2, §3
(§4) A 5 ug/mL PDL/PLL mixture (in PBS) was used to coat inserts. Subsequently the inserts were rinsed with MilliQ water. […]

The next assay has as its system MEB-5 cells. Put plainly: haptotactic migration assay, MEB-5 cells. The class given is cell-based, mouse. The conditions noted are these: 10 ng/ml coating, 200,000 cells. On the procedure:
as §1, §2, §3, §4

Ends that are not written are not given here.

On to “PGRAEAGGQ-NH2 [NRP-4 segment PQ, 9-mer of NRP-4]”, for which the “neuroprotection” value with cerebellar microexplants [1] is on record as “even greater than that of control explants receiving no peroxide”; with hypoxic-ischemic injury, “substantial neuroprotection in all analysed brain regions”. Moreover, the “neuroprotection within all analysed brain regions” value with hypoxic-ischemic injury (9 ng/20 μl icv 2 hrs after hypoxia) is 100%.
As to “REGRRDAPGRAGG-NH2 [NRP-5 segment RG, 13-mer fragment of NRP-5]”, the “concentration of maximal proliferation-inducing activity” value in assay [2] is 100 pM. Further, the “greater chemoattractive effect than control (BSA-containing) medium” value with mouse neural stem cells is 42.1%. Also, in the assay on cerebellar microexplants [3], the “higher neuroprotection than SEQ ID NO:46” value stood at 20% and the “times higher potency than SEQ ID NO:46” value is on record as 10^6 to 10^7 times. Moreover, the “neuroprotection” value in the assay with hypoxic-ischemic injury is reported as “substantial neuroprotection in all analysed brain regions”.
CGP-42112: the longest migration distances entry in the assay on cerebellar microexplants [4] is listed as “around 550 im”.
With “GTPGRAEAGGQVSPCLAASCSQAYG-NH2 (cysteine pairing not given here) [NRP-4 GG, 25-mer fragment of NRP-4]”, the “more E14 cells migrated compared with BSA-vehicle” value in the assay on mouse neural stem cells (10 ng/ml coating, 200,000 cells) was found to be 93.7%. Also, the “more PC-12 cells migrated compared with BSA vehicle” value in the assay with wild-type PC-12 cells came out at 80.8%. Also, in the assay on MEB-5 cells, the “more MEB-5 cells migrated compared with BSA-vehicle” value worked out at 195%.
